Measurements as given in patent US9284559B2, “Multivalent aptamer complexes” (Wake Forest University Health Sciences, priority 2009, dated 2016).

Tests used:
[1] = system: PC3 xenografts; test: In vivo xenograft study of anti-tumor activity; settings: for tumor growth relative to control: i.v. 1× per week via jugular vein catheter, 5FU 100 mg/kg, first 44 days, FdUMP[10] effect from day 18
Text: FIG. 7. Plot of tumor size versus time for PC3 xenografts in nude mice. Data are shown for four treatment groups (n=8 in each group): 1) control 1; 2) FdUMP[10]; 3) control 2; 4) 5-FU. The FdUMP[10] and 5FU studies were done consecutively (rather than concurrently) so that two control groups were required.
The principal strategy that will be used to render the dimeric aptamer complexes we have developed selectively cytotoxic towards targeted cancer cells is to include cytotoxic nucleotides, such as FdU, in the structure. While other modalities may also be included to render these modified aptamers cytotoxic to cancer cells (e.g. siRNA, toxins), there is considerable merit to the concept that dimeric aptamer complexes are the best method for delivery of FdU and other cytotoxic nucleotide analogs in the future. In principle, delivery of cytotoxic nucleotide analogs in aptamers increases the selectivity and potency of these drugs while minimizing systemic toxicities. In this regard, it is important to consider the advantages obtained by inclusion of FdU in single-stranded DNA (e.g. FdUMP[10]) relative to delivery as the nucleobase (5FU). We have shown that not only does delivery of fluoropyrimidine (FP) as FdUMP[10] increase efficacy and decrease toxicity, it also changes the spectrum of malignancies that are responsive to FP treatment. […] PSMA, the target for the dimeric aptamer complexes being developed by us, is frequently expressed in advanced prostate cancer. PSMA is also frequently expressed in tumor neovasculature. As FPs are widely used for treatment of solid tumors, the dimeric aptamer complexes developed in these studies should provide an improved mechanism for tumor-specific delivery of FPs.
We recently completed an in vivo xenograft study evaluating the anti-tumor activity of FdUMP[10] and 5FU towards PC3 xenografts (FIG. 8). […] FdUMP[10] (150 mg/kg) was injected i.v. 1× per week via jugular vein catheter. 5FU (100 mg/kg) was also injected 1× per week by the same route. […] FdUMP[10] was well-tolerated at the administered dose. A mixed effects model was fit to examine whether there were differences between groups over the first 44 days after administration of FdUMP[10] or 5FU. In this model, individual animals were considered as random effects and the group and day variables were considered as fixed effects. […] We expect that with dimeric aptamer complexes including FdU, we will further increase the selectivity for malignant cells and further reduce systemic toxicities. Thus, dimeric aptamer complexes may ultimately become the preferred method for administering fluoropyrimidine chemotherapy in the era of molecularly targeted cancer therapeutics.

[2] = system: PC3 cells; test: Relative cytotoxicity of activated FPs in PC3 versus C4-2 cells; format: cell-based; settings: PC3 mutant p53, C4-2 wtp53; ongoing studies
[3] = system: PC3 cells; test: Fluorescence microscopy of fluorescently-labeled aptamer on live cells (PSMA− negative control); format: cell-based; settings: 2 h, room temperature
Experimental: (§1) FIG. 1. Fluorescence microscopy images of the PSMA01 DNA aptamer binding to (A) C4-2 cells; (B) LNCaP cells; (C)PC3 cells. (D) Binding of the A10-3 RNA aptamer to C4-2 cells. Live cells were incubated in PBS with 1×10^−6 M Rhodamine-conjugated aptamer for 2 h at room temperature. Cells were fixed with 3.7% formaldehyde for 2 min prior to visualization using an Olympus inverted microscope.
(§2) In these studies, live (non-fixed cells) cells were incubated in the presence of fluorescently-labeled aptamer for 2 h at room temperature. In these studies, C4-2 and LNCaP cells were used to evaluate binding to PSMA+ cells while PC3 cells were used as a PSMA− negative control.

[4] = system: LNCaP cells; test: Fluorescence microscopy of fluorescently-labeled aptamer on live cells; format: cell-based; settings: PSMA+ cells, 2 h, room temperature
Experimental: as §1, §2

[5] = system: C4-2 cells; test: Flow cytometry of binding of fluorescently labeled aptamers and dimeric aptamer complexes; format: cell-based; settings: FIG. 6; Quasar 570 / Quasar 670 fluorescence
Experimental: FIG. 6. Flow cytometry evaluation of the binding of fluorescently labeled aptamers and dimeric aptamer complexes with and without flexible linkers to C4-2 cells. Aptamer labeling with Quasar 570 and Quasar 670 was done as described in FIG. 8.
The relative binding of the PSMA01 DNA aptamer in monomeric form as well as in dimeric form with and without flexible linkers was also evaluated towards C4-2 cells using flow cytometry. Cells were treated in the same manner as described for the confocal microscopy experiments and were detached using an enzyme-free cell-dissociation buffer (Invitrogen). Cells were analyzed using a BD FACSCanto flow cytometry system and the data were analyzed using BD FACSDiva software (BD Biosciences, San Jose, Calif.).

[6] = system: C4-2 cells; test: Fluorescence microscopy of fluorescently-labeled aptamer, dimeric complex or mAb on live cells; format: cell-based
Experimental: as §1
FIG. 3. Fluorescence microscopy images of (A) a monomeric aptamer conjugate of PSMA01 with a dT16 tail; (B) a dimeric aptamer complex consisting of 1:1 ratio of monomeric PSMA01 conjugates with dA16 and dT16 tails; (C) the J591 mAb. All images were obtained using live C4-2 cells. For (A) and (B) cells were prepared as described in FIG. 4. […]
We have has formed an affinity matrix using recombinant PSMA expressed from baculovirus. […] Protein purity was determined by gel electrophoresis and the identity of the protein was confirmed by Western blotting and mass spectrometry. […] The ssDNA product was analyzed by gel electrophoresis and quantified by UV absorption. […] DNA sequences were determined from individual clones at the core DNA sequencing facility of the CCCWFU. […] These sequences were also shown using fluorescence microscopy to bind selectively to PSMA-expressing prostate cancer cells (LNCaP, C4-2) relative to PC3 cells. […]

Compound | tumor growth relative to control ([1]; FdUMP[10] 150 mg/kg) | tolerability / body weight at administered dose ([1]; mouse, in vivo) | relative sensitivity of PC3 versus C4-2 cells to activated FPs [2] | tolerability / body weight at administered dose ([1]; i.v. 1× per week, FdUMP[10] 150 mg/kg, 5FU 100 mg/kg (maximum tolerated dose)) | binding to PC3 cells [3] | binding to LNCaP cells [4] | mean fluorescence intensity (cell binding) [5] | internalization into PSMA+ cells ([6]; C4-2 and LNCaP cells, incubation at room temperature or 37° C.) | binding to C4-2 cells ([6]; PSMA+ cells, live cells, 1×10^−6 M Rhodamine-conjugated aptamer, 2 h, room temperature)
O=c1[nH]cc(F)c(=O)[nH]1 [5FU, 5-fluorouracil] | did not reduce tumor growth rates relative to control | lost weight compared to the controls |  |  |  |  |  |  | 
FdUMP[10] | significantly reduced tumor growth relative to control |  | PC3 cells are more sensitive | well-tolerated |  |  |  |  | 
PSMA01: DNA aptamer to PSMA, 5′-GCGTTTTCGCTTTTGCGTTTTGGGTCATCTGCTTACGATAGCAATCGT (SEQ ID NO: 1) (DNA, backbone and methylation of C not given here; further chemistry not fully specified) |  |  |  |  | no binding | selective binding | right-shifted relative to background | Neither our PSMA-01 DNA aptamer nor the A10-3 aptamer were internalized into PSMA+ cells to any significant extent | selective binding
